The text below walks through data of patent publication US20150121570A1, “GENE […] DROUGHT STRESS TOLERANCE AND T[…] WITH THE SAME” (priority 2013, published 2015).

Assay type in all cases: in vivo, Arabidopsis thaliana
Test [1] concerns stomata of mature leaves of wild-type and atamdr mutant plants. Briefly: ABA-induced stomatal closure (stomatal aperture measurement). The conditions noted are these: 10 μm ABA for 2 h; for stomatal aperture (the ratio of width to length): 4-week-old leaves. The protocol: (§1) FIGS. 4a to 4c represent stomatal aperture and H2O2 production of wild-type, atamdr plants in response to different concentrations of ABA. […] Light-grown, 4-week-old mature leaves of wild-type and atamdr plants were incubated in stomatal opening solution for 2 h and transferred to solutions containing the 10 μM ABA for 2 h. Stomata on the abaxial surface were observed by light microscopy. […] Leaves from wild-type, atamdr plants were treated with 0 or 100 μM ABA for 2 h and transferred to 100 μg/mL DAB (3,3′-diaminobenzidine-4HCl) solution overnight. The presence and level of H2O2 in the leaves were visualized as a dark brown color.
Mature leaves of light-grown, 4-week-old wild-type and atamdr mutant plants were used for the observation of mature stomata. Detached leaves were incubated in stomatal opening solution (10 mM MES-KOH, […] CaCl2, 10 mM KCl) for 2 h and then transferred to stomatal opening solution supplemented with 0 or 10 μM ABA for 2 h. Subsequently, epidermal strips were mounted on glass slides and observed with a light microscope.
Mature leaves of light-grown, 4-week-old wild-type and atamdr mutant plants were detached and incubated in stomatal opening solution and then transferred to stomatal opening solution supplemented with various concentrations of ABA (0 and 10 μM) for 2 h. […] Stomatal aperture of wild-type plants treated with 10 μm ABA was approximately 0.09 which was 2-fold closed than that of mutant, while stomatal aperture of atamdr mutant treated with 10 μm ABA was approximately 0.175, which was 1.94-fold compared to that of wild-type plants.

Test [2] concerns mature leaves of wild-type and atamdr plants. As to the kind of experiment: ABA-induced H2O2 production analyzed by DAB staining. The settings on record: 0 or 100 μM ABA. The protocol:
as §1
To investigate the accumulation of H2O2, light-grown, 4-week-old mature leaves of wild-type (WT), atamdr plants were incubated in stomatal opening solution for 2 h and treated with 0 or 100 μM ABA. Leaves were transferred to 100 μg/mL DAB (3,3′-diaminobenzidine-4HCl) solution overnight, and washed and fixed by 96% ethanol. Leaves were observed after complete chlorosis (Luis David Maldonado-Bonilla et al.; Eur J Plant Pathol. 121:439449, 2008).
To investigate the accumulation of H2O2, light-grown, 4-week-old mature leaves of wild-type and atamdr plants were treated with 0 or 100 μM ABA, and stained with 100 ng/mL DAB (3,3′-diaminobenzidine-4HCl) solution in dark.

The next test has as its system AtAIRP2 gene expression. Briefly: Gene expression after ABA treatment by RT-PCR. The settings on record: atamdr mutant, 300 μM ABA hormone, 1 hour and 3 hours. The method, then:
FIGS. 2a to 2d represent the expression patterns of AtAMDR in response to various abiotic stress conditions. Total RNA was prepared from light-grown, 7-day-old Arabidopsis seedlings, which had been treated with drought (FIG. 2a), cold (FIG. 2b), high salinity (300 mM NaCl) (FIG. 2c) or 100 μM ABA (FIG. 2d). Induction patterns of AtAMDR were investigated by RT-PCR. RD29A was used as representative control gene for drought, cold and salt stress, and Rab18 was used as control gene for ABA.
Total RNA was prepared from 7-day-old Arabidopsis seedlings, which had been treated with drought (1-2 h), cold (4° C. for 6-12 h), high salinity (300 mM NaCl for 1-3 h) or 100 μM ABA (1-3 h). Induction patterns of AtAMDR were investigated by RT-PCR.
In order to determine expressions of the AtAMDR gene to drought stress, the wild type Arabidopsis thaliana seedlings which were grown on medium for 2 weeks were exposed in the air, and sampled after 1 hour and 2 hours. In order to determine expressions of the AtAMDR gene to salt stress, the wild type Arabidopsis thaliana seedlings which were grown on medium for 2 weeks were treated with 300 mM sodium chloride, and sampled after 1 hour and 3 hours. […]
The AtAIRP2 gene expressions in various abiotic stresses were analyzed by RT-PCR. […]

As to `CC1=CC(=O)CC(C)(C)[C@@]1(O)/C=C/C(C)=C\C(=O)O` [ABA, abscisic acid], the “stomatal aperture of atamdr mutant compared to that of wild-type plants” value in test [1] was determined as 1.94 fold. The “stomatal aperture (the ratio of width to length)” value is listed as “approximately 0.175” in test [1] (atamdr mutant) and “approximately 0.09” in test [1] (wild-type plants). Further, the figures for the “accumulation of H2O2” value in test [2] (atamdr leaves) and in test [2] (wild-type leaves) were “significantly delayed” and “drastically arisen”, respectively. For the same compound, in the test on AtAIRP2 gene expression, the AtAIRP2 gene expression result is listed as “not affected”.
